Publication PMC3557747 (Bioorganic & medicinal chemistry letters, 2012)
Where two headings read alike, the source gives them in different places.

How the values were obtained:
CpIMPDH [1] = target: T1, CpIMPDH (Cryptosporidium parvum, UniProt Q8T6T2); conditions: with respect to NAD+, cited from earlier work
T1 sequence (Q8T6T2 1-400): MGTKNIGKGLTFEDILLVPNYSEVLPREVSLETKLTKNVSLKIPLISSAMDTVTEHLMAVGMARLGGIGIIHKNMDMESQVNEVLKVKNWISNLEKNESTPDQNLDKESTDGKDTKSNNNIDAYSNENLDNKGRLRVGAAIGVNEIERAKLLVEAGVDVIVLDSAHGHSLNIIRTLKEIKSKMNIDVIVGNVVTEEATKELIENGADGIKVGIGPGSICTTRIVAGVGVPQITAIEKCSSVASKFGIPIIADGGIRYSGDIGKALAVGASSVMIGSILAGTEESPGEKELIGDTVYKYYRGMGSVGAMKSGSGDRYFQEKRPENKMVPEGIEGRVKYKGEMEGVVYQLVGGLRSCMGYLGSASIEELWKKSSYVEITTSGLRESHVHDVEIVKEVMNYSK

human IMPDH2 = conditions: read-out: IC50 human IMPDH2; cited from earlier work
[2] = 50 μM; cited from earlier work
human IMPDH1 = conditions: read-out: IC50 human IMPDH1; cited from earlier work
T. gondii/CpIMPDH = assay: Antiparasitic activity in Toxoplasma gondii model of C. parvum infection; conditions: cultured in hTERT-immortalized human foreskin fibroblasts
CpIMPDH [3] = target: T1, CpIMPDH; assay: Mechanism of CpIMPDH inhibition with respect to NAD+; type: biochemical
C. parvum = assay: IL12 knockout mouse model of C. parvum infection; type: in vivo; conditions: 250 mg/kg oral once per day for seven days

COc1ccc(NC(=O)Cc2nn(C)c(=O)c3ccccc23)cc1 [Compound 1]
Ki (CpIMPDH [1]; read-out: Kis): 1.8 µM
mode of inhibition (CpIMPDH [1]): mixed inhibitor
IC50 (human IMPDH2): > 50 µM
antiparasitic activity [2]: did not display antiparasitic activity
IC50 (human IMPDH1): > 50 µM

Cn1nc(CC(=O)Nc2ccc(Br)c(C(F)(F)F)c2)c2ccccc2c1=O [Compound 26]
EC50 Toxo/CpIMPDH (T. gondii/CpIMPDH): sub-micromolar activity

Cn1nc(CC(=O)Nc2ccc(Cl)c(C(F)(F)F)c2)c2ccccc2c1=O [Compound 27]
mode of inhibition (CpIMPDH [3]): pure noncompetitive inhibitor
antiparasitic activity in vivo (C. parvum): no antiparasitic activity was observed
EC50 Toxo/CpIMPDH (T. gondii/CpIMPDH): sub-micromolar activity

Cn1nc(CC(=O)Nc2ccc3oc4c(c3c2)CCCC4)c2ccccc2c1=O [Compound 53]
EC50 Toxo/CpIMPDH (T. gondii/CpIMPDH): sub-micromolar activity

Cn1nc(CC(=O)Nc2ccc3oc4ccccc4c3c2)c2ccccc2c1=O [Compound 54]
EC50 Toxo/CpIMPDH (T. gondii/CpIMPDH): sub-micromolar activity
